Measured values as given in patent publication US9132140B2, “Boronic acid derivatives and therapeutic uses thereof” (Rempex Pharmaceuticals, Inc., priority 2013, dated 2015).
Read-outs that look alike come from different tables or passages of the source.

What was measured:
[1] = test system: EC1061 (NDM-1, CMY-6); type: cell-based, Escherichia coli; conditions: EC1061; alone
Text: (§1) Several strains simultaneously expressing both class A and class B carbapenemases, which were constructed using conjugation, were also included in the panel.

[2] = test system: EC1064 (NDM-1, CMY-6, CTX-M-15); type: cell-based, Escherichia coli; conditions: EC1064; alone
Text: as §1

[3] = test system: EC1068 (VIM-1); type: cell-based, Escherichia coli; conditions: EC1068; alone
Text: as §1

[4] = test system: EC1065 (IMP-1 CMY-2); type: cell-based, Escherichia coli; conditions: EC1065; alone
Text: as §1

[5] = test system: KPM1110 (NDM, KPC); type: cell-based, Klebsiella pneumoniae; conditions: KPM1110; alone
Text: as §1

[6] = test system: KP1014 (Vim-1, TEM, SHV); type: cell-based, Klebsiella pneumoniae; conditions: KP1014; alone
Text: as §1

[7] = test system: KPM1122 (NDM, VIM); type: cell-based, Klebsiella pneumoniae; conditions: KPM1122; alone
Text: as §1

[8] = test system: KPM1097 (NDM, KPC); type: cell-based, Klebsiella pneumoniae; conditions: KPM1097; alone
Text: as §1

[9] = test system: KP1059 (VIM-1, SHV-11); type: cell-based, Klebsiella pneumoniae; conditions: KP1059; alone
Text: as §1

[10] = test system: KPM1099 (NDM, KPC); type: cell-based, Klebsiella pneumoniae; conditions: KPM1099; alone
Text: as §1

[11] = test system: KP1084 (KPC-3, SHV-11, TEM-1); type: cell-based, Klebsiella pneumoniae; conditions: KP1084; alone
Text: as §1

[12] = test system: KPM1109 (NDM, KPC); type: cell-based, Klebsiella pneumoniae; conditions: KPM1109; alone
Text: as §1

[13] = test system: KP1097 (IMP-1 SHV); type: cell-based, Klebsiella pneumoniae; conditions: KP1097; alone
Text: as §1

[14] = test system: KP1004 (KPC TEM SHV); type: cell-based, Klebsiella pneumoniae; conditions: KP1004; alone
Text: as §1

[15] = test system: KP1081 (NDM-1, TEM-1, SHV-11, CMY-6, CTX-M-15); type: cell-based, Klebsiella pneumoniae; conditions: KP1081; alone
Text: as §1

[16] = test system: KP1098 (IMP-26 TEM SHV); type: cell-based, Klebsiella pneumoniae; conditions: KP1098; alone
Text: as §1

[17] = test system: KP1070 (KPC TEM SHV); type: cell-based, Klebsiella pneumoniae; conditions: KP1070; alone
Text: as §1

[18] = test system: KPM1108 (NDM, KPC); type: cell-based, Klebsiella pneumoniae; conditions: KPM1108; alone
Text: as §1

[19] = test system: KP1065 (VIM-1, SHV-11); type: cell-based, Klebsiella pneumoniae; conditions: KP1065; alone
Text: as §1

[20] = test system: KPM1123 (KPC-2 TEM SHV); type: cell-based, Klebsiella pneumoniae; conditions: KPM1123; alone
Text: as §1

[21] = test system: KPM1346 (NDM-1 TEM SHV CTX-M-15 CMY); type: cell-based, Klebsiella pneumoniae; conditions: KPM1346; alone
Text: as §1

[22] = test system: KPM1107 (NDM, KPC); type: cell-based, Klebsiella pneumoniae; conditions: KPM1107; alone
Text: as §1

[23] = test system: KPM1344 (VIM-1); type: cell-based, Klebsiella pneumoniae; conditions: KPM1344; alone
Text: as §1

[24] = test system: KPM1345 (VIM-1 SHV); type: cell-based, Klebsiella pneumoniae; conditions: KPM1345; alone
Text: as §1

[25] = test system: KPM1347 (NDM-1 SHV CTX-M-15); type: cell-based, Klebsiella pneumoniae; conditions: KPM1347; alone
Text: as §1

[26] = test system: KP1054 (VIM-1, SHV-11); type: cell-based, Klebsiella pneumoniae; conditions: KP1054; alone
Text: as §1

[27] = test system: KP1061 (KPC TEM SHV); type: cell-based, Klebsiella pneumoniae; conditions: KP1061; alone
Text: as §1

[28] = test system: KP1064 (KPC TEM SHV); type: cell-based, Klebsiella pneumoniae; conditions: KP1064; alone
Text: as §1

[29] = test system: KPM1111 (NDM, KPC); type: cell-based, Klebsiella pneumoniae; conditions: KPM1111; alone
Text: as §1

[30] = test system: ECLM1018 (VIM, KPC); type: cell-based, Enterobacter cloacae; conditions: ECLM1018; alone
Text: as §1

[31] = test system: ECL1045 (VIM-1); type: cell-based, Enterobacter cloacae; conditions: ECL1045; alone
Text: as §1

[32] = test system: ECLM1019 (VIM, KPC); type: cell-based, Enterobacter cloacae; conditions: ECLM1019; alone
Text: as §1

[33] = test system: ECLM1017 (VIM, KPC); type: cell-based, Enterobacter cloacae; conditions: ECLM1017; alone
Text: as §1

[34] = test system: ECL1082 (VIM-1); type: cell-based, Enterobacter cloacae; conditions: ECL1082; alone
Text: as §1

[35] = test system: ECLM1016 (NDM, KPC); type: cell-based, Enterobacter cloacae; conditions: ECLM1016; alone
Text: as §1

[36] = test system: ECL1036 (KPC); type: cell-based, Enterobacter cloacae; conditions: ECL1036; alone
Text: as §1

[37] = test system: ECLM1013 (NDM, KPC); type: cell-based, Enterobacter cloacae; conditions: ECLM1013; alone
Text: as §1

[38] = test system: ECLM1014 (NDM, KPC); type: cell-based, Enterobacter cloacae; conditions: ECLM1014; alone
Text: as §1

[39] = test system: ECL1057 (NDM-1, TEM-1, CTX-M-15); type: cell-based, Enterobacter cloacae; conditions: ECL1057; alone
Text: as §1

[40] = test system: ECLM1015 (NDM, KPC); type: cell-based, Enterobacter cloacae; conditions: ECLM1015; alone
Text: as §1

[41] = test system: ECL1055 (KPC); type: cell-based, Enterobacter cloacae; conditions: ECL1055; alone
Text: as §1

[42] = test system: ECL1026 (KPC); type: cell-based, Enterobacter cloacae; conditions: ECL1026; alone
Text: as §1

[43] = test system: KP1087 (KPC-2, CTX-M-15, SHV-11, TEM-1); type: cell-based, Klebsiella pneumoniae; conditions: KP1087; alone
Text: (§2) The results are present in Table 6.
(§3) The results are present in Table 7.

[44] = test system: KP1081 (NDM-1, TEM-1, SHV-11, CMY-6, CTX-M-15); type: cell-based, Klebsiella pneumoniae; conditions: KP1081; alone; remark: listed apart in the source
Text: as §2, §3

[45] = test system: EA1019 (SHV-5, VIM-1); type: cell-based, Enterobacter aerogenes; conditions: EA1019; alone
Text: as §1

In the case of `C[C@@H](O)[C@H]1C(=O)N2C(C(=O)O)=C(S[C@@H]3CN[C@H](C(=O)N(C)C)C3)[C@H](C)[C@H]12` [Meropenem, reference compound], the “Carbapenem MIC alone” value [1] was “Z (MIC of greater than 10 μg/mL)”, the “Carbapenem MIC alone” value [2] was “Z (MIC of greater than 10 μg/mL)” and the “Carbapenem MIC alone” value [3] was “Z (MIC of greater than 10 μg/mL)”. The “Carbapenem MIC alone” value [4] was “Y (MIC of 1 μg/mL to 10 μg/mL)”, the “Carbapenem MIC alone” value [5] was “Z (MIC of greater than 10 μg/mL)” and the “Carbapenem MIC alone” value [6] was “Z (MIC of greater than 10 μg/mL)”. For the same molecule, the “Carbapenem MIC alone” value [7] was “Z (MIC of greater than 10 μg/mL)”, the “Carbapenem MIC alone” value [8] was “Z (MIC of greater than 10 μg/mL)” and the “Carbapenem MIC alone” value [9] was “Z (MIC of greater than 10 μg/mL)”. The “Carbapenem MIC alone” value [10] was “Z (MIC of greater than 10 μg/mL)”, the “Carbapenem MIC alone” value [11] was “Z (MIC of greater than 10 μg/mL)” and the “Carbapenem MIC alone” value [12] was “Z (MIC of greater than 10 μg/mL)”. For the same molecule, the “Carbapenem MIC alone” value [13] was “Z (MIC of greater than 10 μg/mL)”, the “Carbapenem MIC alone” value [14] was “Z (MIC of greater than 10 μg/mL)” and the “Carbapenem MIC alone” value [15] was “Z (MIC of greater than 10 μg/mL)”. For the same molecule, the “Carbapenem MIC alone” value [16] was “Z (MIC of greater than 10 μg/mL)”, the “Carbapenem MIC alone” value [17] was “Z (MIC of greater than 10 μg/mL)” and the “Carbapenem MIC alone” value [18] was “Z (MIC of greater than 10 μg/mL)”. For the same molecule, the “Carbapenem MIC alone” value [19] was “Y (MIC of 1 μg/mL to 10 μg/mL)”, the “Carbapenem MIC alone” value [20] was “Z (MIC of greater than 10 μg/mL)” and the “Carbapenem MIC alone” value [21] was “Z (MIC of greater than 10 μg/mL)”. For the same molecule, the “Carbapenem MIC alone” value [22] was “Z (MIC of greater than 10 μg/mL)”, the “Carbapenem MIC alone” value [23] was “Z (MIC of greater than 10 μg/mL)” and the “Carbapenem MIC alone” value [24] was “Y (MIC of 1 μg/mL to 10 μg/mL)”. The “Carbapenem MIC alone” value [25] was “Z (MIC of greater than 10 μg/mL)”, the “Carbapenem MIC alone” value [26] was “Z (MIC of greater than 10 μg/mL)” and the “Carbapenem MIC alone” value [27] was “Y (MIC of 1 μg/mL to 10 μg/mL)”. The “Carbapenem MIC alone” value [28] was “Z (MIC of greater than 10 μg/mL)”, the “Carbapenem MIC alone” value [29] was “Z (MIC of greater than 10 μg/mL)” and the “Carbapenem MIC alone” value [30] was “Z (MIC of greater than 10 μg/mL)”. For the same molecule, the “Carbapenem MIC alone” value [31] was “Y (MIC of 1 μg/mL to 10 μg/mL)”, the “Carbapenem MIC alone” value [32] was “Z (MIC of greater than 10 μg/mL)” and the “Carbapenem MIC alone” value [33] was “Z (MIC of greater than 10 μg/mL)”. For the same molecule, the “Carbapenem MIC alone” value [34] was “Y (MIC of 1 μg/mL to 10 μg/mL)”, the “Carbapenem MIC alone” value [35] was “Z (MIC of greater than 10 μg/mL)” and the “Carbapenem MIC alone” value [36] was “Y (MIC of 1 μg/mL to 10 μg/mL)”. For the same molecule, the “Carbapenem MIC alone” value [37] was “Z (MIC of greater than 10 μg/mL)”, the “Carbapenem MIC alone” value [38] was “Z (MIC of greater than 10 μg/mL)” and the “Carbapenem MIC alone” value [39] was “Z (MIC of greater than 10 μg/mL)”. For the same molecule, the “Carbapenem MIC alone” value [40] was “Z (MIC of greater than 10 μg/mL)”, the “Carbapenem MIC alone” value [41] was “Y (MIC of 1 μg/mL to 10 μg/mL)” and the “Carbapenem MIC alone” value [42] was “Y (MIC of 1 μg/mL to 10 μg/mL)”. The “Carbapenem MIC alone” value [43] was “Z (MIC of greater than 10 μg/mL)”, the “Carbapenem MIC alone” value [44] was “Z (MIC of greater than 10 μg/mL)” and the “Carbapenem MIC alone” value [45] was “Z (MIC of greater than 10 μg/mL)”.
